Laboratory results taken from patent US20250136584A1, “Benzimidazole Or Azabenzimidazole Compound, Preparation Method Therefor And Use Thereof” (Chengdu Di'Ao Jiuhong Pharmaceutical Factory, priority 2022, published 2025).

Assays:
hGLP1R mice = experiment: Glucose tolerance test in hGLP1R mice after single oral administration; type: in vivo; conditions: 1 mg/kg oral once; for onset of blood glucose reduction compared with comparative example compound DB03 / blood glucose reduction effect compared with comparative example compound DB03: FIG. 3 and FIG. 4; for blood glucose reduction effect compared with PF-06882961: glucose 2 g/kg i.p. 60 minutes later
Protocol: Genetically engineered hGLP1R mice, male, purchased from Biocytogen Jiangsu Gene Biotechnology Co., Ltd., were fasted overnight before the glucose tolerance test (IPTGG), without water deprivation. A solvent or corresponding compound was orally administered once, a glucose solution (2 g/kg) was intraperitoneally injected 60 minutes after administration, and a blood glucose value before administration of glucose (equivalent to a blood glucose value of 0 minute) and blood glucose values 15 minutes, 30 minutes, 60 minutes and 120 minutes after administration of glucose were measured. The solvent was 5% DMSO+40% PEG400+55% physiological saline, and a dosage of the compound was 1 mg/kg (n=3).

hERG potassium channel = biological target: T1, hERG potassium channel (Homo sapiens, UniProt Q12809); experiment: hERG test, patch clamp on HEK-293 cells stably expressing hERG potassium channel; type: cell-based; conditions: HEK-293 cell line stably expressing hERG, read-out: IC50 (μM) of inhibitory effect on hERG potassium channel current
T1 construct: host or cells: HEK-293 stably expressing hERG
T1 sequence (Q12809 whole entry): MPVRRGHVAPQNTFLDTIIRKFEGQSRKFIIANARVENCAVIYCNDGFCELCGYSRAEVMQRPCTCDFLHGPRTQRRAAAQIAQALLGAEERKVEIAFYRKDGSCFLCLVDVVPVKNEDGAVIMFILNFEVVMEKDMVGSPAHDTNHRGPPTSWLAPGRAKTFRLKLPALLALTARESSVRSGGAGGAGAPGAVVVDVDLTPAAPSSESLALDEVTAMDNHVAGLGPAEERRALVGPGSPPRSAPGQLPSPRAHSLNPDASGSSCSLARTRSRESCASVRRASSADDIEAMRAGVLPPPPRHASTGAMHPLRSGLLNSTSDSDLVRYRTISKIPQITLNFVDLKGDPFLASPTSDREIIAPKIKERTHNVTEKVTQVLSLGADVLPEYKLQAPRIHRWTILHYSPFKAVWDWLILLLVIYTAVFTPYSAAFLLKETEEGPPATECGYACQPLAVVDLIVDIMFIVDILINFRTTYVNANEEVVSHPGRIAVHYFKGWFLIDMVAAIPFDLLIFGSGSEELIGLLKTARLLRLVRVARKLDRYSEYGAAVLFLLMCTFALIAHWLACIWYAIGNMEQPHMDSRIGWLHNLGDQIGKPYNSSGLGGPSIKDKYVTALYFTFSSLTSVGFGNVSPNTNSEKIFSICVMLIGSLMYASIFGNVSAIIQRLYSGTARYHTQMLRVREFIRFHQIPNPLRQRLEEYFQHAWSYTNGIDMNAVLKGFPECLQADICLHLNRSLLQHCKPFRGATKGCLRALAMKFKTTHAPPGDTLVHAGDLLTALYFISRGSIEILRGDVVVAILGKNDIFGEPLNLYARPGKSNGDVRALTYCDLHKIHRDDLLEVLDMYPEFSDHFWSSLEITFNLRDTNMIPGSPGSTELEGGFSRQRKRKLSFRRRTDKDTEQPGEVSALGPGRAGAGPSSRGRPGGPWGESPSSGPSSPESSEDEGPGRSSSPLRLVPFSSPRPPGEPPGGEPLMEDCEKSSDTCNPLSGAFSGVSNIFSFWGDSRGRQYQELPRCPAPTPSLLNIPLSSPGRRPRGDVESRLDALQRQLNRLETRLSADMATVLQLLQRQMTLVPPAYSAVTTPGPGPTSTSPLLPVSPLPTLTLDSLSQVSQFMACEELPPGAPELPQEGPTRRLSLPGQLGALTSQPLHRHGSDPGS
Protocol: Test object: influences of compounds on an hERG potassium channel current were tested by a full-automatic patch clamp method.
• (1) An HEK-293 cell line stably expressing an hERG potassium channel was adopted, and hERG potassium channel cells were purchased from Creacell Company. • (2) The HEK-293 cell line stably expressing the hERG potassium channel was cultured in a DMEM culture medium containing 10% fetal bovine serum and 0.8 mg/mL G418 at 37° C. under a carbon dioxide concentration of 5%. • (3) Cell passage: the old culture medium was removed, and the cells were washed once with PBS, then added with 1 mL of TrypLE™ Express solution, and incubated at 37° C. for about 0.5 minutes. When the cells were separated from a dish bottom, about 5 mL of complete culture medium preheated at 37° C. was added. A cell suspension was gently blown with a straw to separate the aggregated cells. The cell suspension was transferred to a sterile centrifuge tube and centrifuged at 1000 rpm for 5 minutes to collect the cells. In amplification or maintenance of culture, the cells were inoculated into a 6 cm cell culture dish, and the number of cells inoculated into each cell culture dish was 2.5×10^5 cells (final volume: 5 mL). In order to maintain an electrophysiological activity of cells, a cell density should not exceed 80%. • (4) In patch clamp detection, before the test, the cells were separated by TrypLE™ Express, and 4×10^3 cells were spread on a cover slip and cultured in a 24-well plate (final volume: 500 μL). After 18 hours, the test was carried out for detection. Data analysis:
A current after an effect of each drug concentration and a blank control current
were standardized first, and then an inhibition rate
corresponding to each drug concentration was calculated. A mean number and a standard error were calculated for each concentration, and a semi-inhibitory concentration of each compound was calculated by the following equation: […]
A dosage-dependent effect was nonlinearly fitted by the above equation, wherein C represented a concentration of a test sample, IC50 represented a semi-inhibitory concentration, and h represented a Hill coefficient. Curve fitting and IC50 calculation were completed by IGOR software.

GLP1R = GLP1R (Homo sapiens, UniProt P43220); experiment: Agonist activity on GLP1R/CRE-LUC HEK293 cells (luciferase reporter, ONE-Glo); type: cell-based; conditions: for EC50: GLP1R/CRE-LUC HEK293 cells, 6 hours incubation, chemiluminescence signal; for activity compared with comparative example compounds PF-06882961, DB02, DB03 and DB06: from Table 1, also much higher than DB04 and DB05
Chain of GLP1R (P43220 24-463): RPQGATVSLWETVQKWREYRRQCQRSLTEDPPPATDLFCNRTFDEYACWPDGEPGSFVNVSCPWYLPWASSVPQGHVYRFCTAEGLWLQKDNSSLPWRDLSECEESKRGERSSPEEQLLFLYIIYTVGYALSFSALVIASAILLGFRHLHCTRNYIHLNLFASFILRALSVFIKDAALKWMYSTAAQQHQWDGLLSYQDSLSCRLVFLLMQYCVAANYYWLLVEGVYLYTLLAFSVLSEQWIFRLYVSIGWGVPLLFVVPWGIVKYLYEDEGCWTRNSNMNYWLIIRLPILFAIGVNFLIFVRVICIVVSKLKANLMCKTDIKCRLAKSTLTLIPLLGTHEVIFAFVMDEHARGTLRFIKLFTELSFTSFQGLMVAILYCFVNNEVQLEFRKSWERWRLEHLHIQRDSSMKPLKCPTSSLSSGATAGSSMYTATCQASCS
Protocol: Logarithmically growing GLP1R/CRE-LUC HEK293 cells (purchased from Nanjing Cobioer) were digested, the digested cells were re-suspended in a DMEM+10% FBS culture medium, and a cell density was adjusted to be 3.5*10^5/mL. The cell solution was added into a 96-well cell culture plate by 100 µL/well, and the plate was cultured overnight in an incubator (37° C., 5% CO2).
A compound was dissolved with DMSO to prepare a storage solution at an initial concentration of 10 mM, an initial concentration of the small molecular compound was 0.2 mM, and the compound was diluted by 3 times and 10 points were diluted, while the 11th point was DMSO. Another 96-well plate was taken, added with 95 μL of cell culture solution (DMEM+10% FBS) in each well, then added with 5 μL of to-be-tested samples at different concentrations in each well, mixed evenly, and then added with 11 μL of to-be-tested samples at different concentrations in each well of the cell culture plate, and each sample had two wells. The culture plate was incubated in an incubator for 6 hours (37° C., […]). The 96-well cell culture plate was taken out, added with 100 μL of ONE-Glo™ reagent in each well, and incubated at room temperature for 10 minutes, and a chemiluminescence signal value was measured with an enzyme-labeled instrument. Data were processed and analyzed by Microsoft Excel and Graphpad Prism6 to obtain an EC50 value of the compound.

[1] = Pharmacokinetic studies in SD rats; type: in vivo; conditions: Sprague-Dawley (SD), rat, plasma
[2] = blood glucose curves and AUC (0 to 120 minutes)

EC50 (GLP1R) [µM] | activity compared with comparative example compounds PF-06882961, DB02, DB03 and DB06 (GLP1R) | half-life [1] [h] | SMILES | onset of blood glucose reduction compared with comparative example compound DB05 (hGLP1R mice; FIG. 1 and FIG. 2) | onset of blood glucose reduction compared with comparative example compound DB03 (hGLP1R mice) | blood glucose reduction effect compared with PF-06882961 (hGLP1R mice; [2]) | blood glucose reduction effect compared with comparative example compound DB05 (hGLP1R mice; blood glucose curves and AUC (0 to 120 minutes), FIG. 1 and FIG. 2) | blood glucose reduction effect compared with comparative example compound DB03 (hGLP1R mice; [2]) | IC50 (hERG potassium channel) [µM]
– | – | – | O=C(O)c1ccc2nc(Cc3ccc(-c4cccc(OCc5ccc(Cl)c6ccoc56)n4)cc3F)n(C[C@@H]3CCO3)c2c1 [Compound 17] | took effect more quickly | took effect more quickly | significantly better | significantly better | absolutely better | > 30
0.00096 | higher | 6 to 10 | O=C(O)c1ccc2nc(Cc3ccc(-c4cccc(OCc5ccc(Cl)c6cc(F)oc56)n4)cc3F)n(C[C@@H]3CCO3)c2c1 [Compound 21] | – | – | significantly better | – | – | > 30
0.00289 | higher | 6 to 10 | O=C(O)c1ccc2nc(Cc3ccc(-c4ccc(F)c(OCc5ccc(Cl)c6ccoc56)n4)cc3F)n(C[C@@H]3CCO3)c2c1 [Compound 93] | – | took effect more quickly | significantly better | – | absolutely better | > 30
0.00089 | higher | 6 to 10 | O=C(O)c1ccc2nc(Cc3ccc(-c4ccc(F)c(OCc5ccc(Cl)c6cc(F)oc56)n4)cc3F)n(C[C@@H]3CCO3)c2c1 [Compound 94] | – | – | significantly better | – | – | > 30
– | – | 6 to 10 | O=C(O)c1ccc2nc(Cc3ccc(-c4cccc(OCc5ccc(Cl)c6cc(Cl)oc56)n4)cc3F)n(C[C@@H]3CCO3)c2c1 [Compound 99] | – | – | significantly better | – | – | > 30
0.00202 | higher | 6 to 10 | O=C(O)c1ccc2nc(Cc3ccc(-c4ccc(F)c(OCc5ccc(Cl)c6cc(Cl)oc56)n4)cc3F)n(C[C@@H]3CCO3)c2c1 [Compound 100] | – | took effect more quickly | significantly better | – | absolutely better | > 30
– | – | 2.94 | O=C(O)c1ccc2nc(Cc3ccc(-c4cccc(OCc5ccc(Cl)cc5F)n4)cc3F)n(C[C@@H]3CCO3)c2c1 [DB03, reference compound] | – | – | – | – | – | > 10
– | – | 3.13 | N#Cc1ccc(COc2cccc(C3CCN(Cc4nc5ccc(C(=O)O)cc5n4C[C@@H]4CCO4)CC3)n2)c(F)c1 [PF-06882961, reference compound] | – | – | – | – | – | 9.35
